# According to US9828379B2 (priority 2013, dated 2017):
# Tests used:
# FAAH [1] = biological target: T1, FAAH (Mus musculus, UniProt O08914); assay: In vitro competitive activity-based protein profiling (Table 2, % inhibition at 1 μM); format: biochemical; conditions: read-out: % Inhibition at 1 μM FAAH
# T1 sequence (O08914 1-579): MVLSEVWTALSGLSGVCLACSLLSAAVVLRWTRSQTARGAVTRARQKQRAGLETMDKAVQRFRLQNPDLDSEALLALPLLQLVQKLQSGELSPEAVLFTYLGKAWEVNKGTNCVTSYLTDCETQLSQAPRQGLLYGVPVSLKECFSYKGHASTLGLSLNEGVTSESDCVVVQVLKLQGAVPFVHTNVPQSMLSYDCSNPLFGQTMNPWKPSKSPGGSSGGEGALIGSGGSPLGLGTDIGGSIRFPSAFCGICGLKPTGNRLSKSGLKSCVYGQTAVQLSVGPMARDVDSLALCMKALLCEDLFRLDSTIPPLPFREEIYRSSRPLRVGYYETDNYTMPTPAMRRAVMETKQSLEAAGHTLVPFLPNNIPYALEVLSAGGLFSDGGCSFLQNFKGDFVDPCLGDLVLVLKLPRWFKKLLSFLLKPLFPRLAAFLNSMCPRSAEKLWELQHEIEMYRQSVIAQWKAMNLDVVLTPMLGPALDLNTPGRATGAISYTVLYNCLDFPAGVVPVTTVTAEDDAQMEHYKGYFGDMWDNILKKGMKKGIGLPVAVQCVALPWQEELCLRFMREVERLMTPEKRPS
# ABHD6 [2] = biological target: T2, ABHD6 (Mus musculus, UniProt Q8R2Y0); assay: as above; format: biochemical; conditions: read-out: % Inhibition at 1 μM ABHD6
# T2 sequence (Q8R2Y0 1-336): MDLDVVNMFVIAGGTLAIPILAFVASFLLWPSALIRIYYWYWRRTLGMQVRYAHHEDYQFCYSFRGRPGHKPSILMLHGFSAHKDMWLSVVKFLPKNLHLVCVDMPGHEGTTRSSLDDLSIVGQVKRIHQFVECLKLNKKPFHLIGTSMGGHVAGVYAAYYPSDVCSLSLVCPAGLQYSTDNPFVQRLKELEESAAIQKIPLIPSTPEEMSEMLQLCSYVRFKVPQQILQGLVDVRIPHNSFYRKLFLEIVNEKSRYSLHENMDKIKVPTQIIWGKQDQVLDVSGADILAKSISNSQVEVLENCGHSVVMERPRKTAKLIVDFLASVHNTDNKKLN
# MAGL [3] = biological target: T3, MAGL (Mus musculus, UniProt O35678); assay: as above; format: biochemical; conditions: read-out: % Inhibition at 1 μM MAGL
# T3 sequence (O35678 1-303): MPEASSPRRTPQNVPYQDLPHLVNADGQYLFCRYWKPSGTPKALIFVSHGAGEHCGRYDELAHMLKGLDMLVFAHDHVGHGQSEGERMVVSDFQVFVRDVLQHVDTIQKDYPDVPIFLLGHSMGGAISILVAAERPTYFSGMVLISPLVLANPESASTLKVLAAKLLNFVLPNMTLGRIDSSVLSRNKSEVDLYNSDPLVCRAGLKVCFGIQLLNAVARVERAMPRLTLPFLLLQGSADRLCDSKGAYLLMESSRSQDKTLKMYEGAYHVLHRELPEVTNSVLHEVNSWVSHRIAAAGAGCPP
# Procedure: After 30 min, FP—Rh (1.0 μL, 50 μM in DMSO) was added and the mixture was incubated for another 30 min at 37° C. Reactions were quenched with SDS loading buffer (50 μL-4×) and run on SDS-PAGE.
# Cell lysates were diluted with mock proteomes for use in competitive ABPP experiments.
# FAAH [4] = biological target: T1, FAAH; assay: biochemical; conditions: in vitro competitive ABPP
# MAGL [5] = biological target: T3, MAGL; assay: biochemical; conditions: mouse; in vitro competitive ABPP; read-out: Mouse (IC50 value, nM) MAGL
# ABHD6 [6] = biological target: T2, ABHD6; assay: biochemical; conditions: in vitro competitive ABPP
SMILES,inhibition at 1 µM (FAAH [1]),inhibition at 1 µM (ABHD6 [2]),inhibition at 1 µM (MAGL [3]),IC50 (FAAH [4]),IC50 (MAGL [5]),IC50 (ABHD6 [6])
"O=C(OC(C(F)(F)F)C(F)(F)F)N1CC2CN(Cc3ccc(N4CCCCC4)cc3C(F)F)CC2C1 (stereo not drawn) [Example 201, 1,1,1,3,3,3-hexafluoropropan-2-yl 5-(2-(difluoromethyl)-4-(piperidin-1-yl)benzyl)hexahydropyrrolo[3,4-c]pyrrole-2(1H)-carboxylate]",25 to 75%,< 25%,> 75%,1000 to 10000 nM,100 to 1000 nM,1000 to 10000 nM
"Cc1c(CN2CC3CN(C(=O)OC(C(F)(F)F)C(F)(F)F)CC3C2)cccc1N1CCC(NS(C)(=O)=O)CC1 (stereo not drawn) [Example 149, 1,1,1,3,3,3-hexafluoropropan-2-yl 5-[[3-(4-methanesulfonamidopiperidin-1-yl)-2-methylphenyl]methyl]-octahydropyrrolo[3,4-c]pyrrole-2-carboxylate]",25 to 75%,< 25%,> 75%,1000 to 10000 nM,< 100 nM,1000 to 10000 nM
"O=C(ON1C(=O)CCC1=O)N1CC2CN(Cc3cccc(Cl)c3N3CCC(F)CC3)CC2C1 (stereo not drawn) [Example 160, 2,5-dioxopyrrolidin-1-yl 5-[[3-chloro-2-(4-fluoropiperidin-1-yl)phenyl]methyl]-octahydropyrrolo[3,4-c]pyrrole-2-carboxylate]",25 to 75%,25 to 75%,> 75%,1000 to 10000 nM,100 to 1000 nM,1000 to 10000 nM
"Cc1c(CN2CC3CN(C(=O)OC(C(F)(F)F)C(F)(F)F)CC3C2)cccc1N1CCC2(CCOC2)C1 (stereo not drawn) [Example 46, 1,1,1,3,3,3-Hexafluoropropan-2-yl 5-[(2-methyl-3-[2-oxa-7-azaspiro[4.4]nonan-7-yl]phenyl)methyl]-octahydropyrrolo[3,4-c]pyrrole-2-carboxylate]",25 to 75%,< 25%,> 75%,1000 to 10000 nM,< 100 nM,1000 to 10000 nM
"O=C(ON1C(=O)CCC1=O)N1CC2CN(Cc3ccc(N4CCOCC4)cc3OC(F)(F)F)CC2C1 (stereo not drawn) [Example 86, 2,5-Dioxopyrrolidin-1-yl 5-[[4-(morpholin-4-yl)-2-(trifluoromethoxy)phenyl]methyl]-octahydropyrrolo[3,4-c]pyrrole-2-carboxylate]",25 to 75%,< 25%,> 75%,1000 to 10000 nM,100 to 1000 nM,1000 to 10000 nM
"CN1CCN(c2c(Cl)cccc2CN2CC3CN(C(=O)OC(C(F)(F)F)C(F)(F)F)CC3C2)CC1 (stereo not drawn) [Example 171, 1,1,1,3,3,3-hexafluoropropan-2-yl 5-[[3-chloro-2-(4-methylpiperazin-1-yl)phenyl]methyl]-octahydropyrrolo[3,4-c]pyrrole-2-carboxylate]",< 25%,< 25%,> 75%,> 10000 nM,100 to 1000 nM,1000 to 10000 nM
"CC(=O)N1CCN(c2cc(Cl)ccc2CN2CC3CN(C(=O)OC(C(F)(F)F)C(F)(F)F)CC3C2)CC1 (stereo not drawn) [Example 21, 1,1,1,3,3,3-Hexafluoropropan-2-yl 5-[[2-(4-acetylpiperazin-1-yl)-4-chlorophenyl]methyl]-octahydropyrrolo[3,4-c]pyrrole-2-carboxylate]",25 to 75%,25 to 75%,> 75%,1000 to 10000 nM,< 100 nM,100 to 1000 nM
"CCc1cc(CN2CC3CN(C(=O)OC(C(F)(F)F)C(F)(F)F)CC3C2)n(C2CCOCC2)n1 (stereo not drawn) [Example 156, 1,1,1,3,3,3-hexafluoropropan-2-yl 5-[[3-ethyl-1-(oxan-4-yl)-1H-pyrazol-5-yl]methyl]-octahydropyrrolo[3,4-c]pyrrole-2-carboxylate]",< 25%,< 25%,> 75%,1000 to 10000 nM,< 100 nM,1000 to 10000 nM
